The values that follow come from US9951104B2, “Peptides and methods of using same” (Serpin Pharma, LLC, priority 2012, dated 2018).

Entries after “also recorded” stand apart in the source; their conditions may differ.

One data set addresses T1, TLR-2 (Mus musculus, UniProt Q9QUN7).
T1 construct: host or cells: HEK-Blue mTLR2 (engineered HEK reporter line secreting alkaline phosphatase)
As to the kind of experiment: TLR-2 indicator cell line assay (HEK-Blue mTLR2, Invivogen), secreted alkaline phosphatase. It counts as cell-based. The conditions noted are these: 20 μg/ml peptide for 24 hours (FIGS. 12, 13). The method, then: Graph summarizing representative data from assays with an engineered TLR-2 indicator cell line (HEK-Blue™ mTLR2, Invivogen). Cells were incubated with the indicated concentrations of peptide for 24 hours. Upon TLR2 activation, the cells secrete alkaline phosphatase which can be assayed. The assay was done in triplicate and averages with standard deviations are plotted.
Graph summarizing data from an experiment where an engineered TLR-2 indicator cell line (HEK-Blue™ mTLR2, Invivogen) was used to test the impact of substituting amino acid residues of the SP16 peptide with alanine (“alanine scan”). Cells were incubated with 20 μg/ml of the indicated peptides for 24 hours. Upon TLR2 activation, the cells secrete alkaline phosphatase which can be assayed. The assay was done in triplicate and averages are plotted. Peptide sequences are shown in the following figure. *p<0.05, compared with scrambled control (SP34).
We also performed a peptide optimization assay using an alanine scan with the TLR-2 assay. Data was obtained using an experiment with an engineered TLR-2 indicator cell line (HEK-BLUE™ mTLR2, Invivogen). Cells were incubated with the 20 μg/ml of the indicated peptides for 24 hours. Upon TLR2 activation, the cells secrete alkaline phosphatase which can be assayed. The assay was done in triplicate and averages are plotted. […]

The test system of a further data set is LPS challenged mice. As to the kind of experiment: Mouse LPS challenge model, serum TNF-alpha readout. It counts as in vivo. The conditions noted are these: LPS challenged mice treated with alanine scanned SP16 peptides; compared to Dexamethasone (FIG. 10). How it is done: In FIG. 10A the mice were treated with alanine scanned SP16 peptide. […] Based on this alanine screen, and without wishing to be bound by a theory, it appears that the C- and N-terminal amino acids contribute to the anti-inflammatory effect of the SP16 peptide. […] Groups of 3 animals were injected with 0.2 mg/kg peptide and subjected to LPS challenge. Serum TNF-alpha levels were determined by ELISA. Several peptides provided the same level of protection as 1 mg/kg Dexamethasone.
The ability of peptide drugs was tested to for their potential for the reduction of inflammatory cytokines following treatment with purified bacterial lipopolysaccharide (LPS)—a major component of bacterial cell wall of Gram negative bacteria. A model of inflammation was used wherein mice were injected with LPS, which induced a transient immune response and a surge of serum inflammatory cytokines. The immune response peaks after 90 minutes and subsides after 24 hours. The levels of key serum inflammatory markers were compared between mice treated and untreated with LPS 90 minutes after injection.
We designed 18 different peptides based on the hAAT sequence (Accession #AAB59371), and had these synthesized using conventional FMOC chemistry. To assess in vivo anti-inflammatory and therapeutic potential, the peptides were tested in a mouse lipopolysaccharide (LPS) challenge model with serum TNFα levels as readout. Using dexamethasone as reference, groups of 3 animals were IP injected with 0.2 mg/kg peptide 2 hours prior to an LPS challenge, and serum TNFα levels determined 30 min after the LPS challenge, by ELISA. The best performing peptide reduced serum TNFα levels equivalent to those achieved with 1 mg/kg dexamethasone. Next, shortened versions of this peptide were synthesized, tested in the mouse LPS challenge model, and a 17 amino acid peptide, SP16, emerged as a lead development candidate for further characterization. Next, SP16 was tested in a lethal endotoxemia model, which models endotoxemia following acute radiation exposure, where Gram negative bacteria leaking from the gastro-intestinal system can cause lethal endotoxemia.
Mice were injected with 0.5, 0.1, 0.02 and 0.004 mg of each peptide. Mice were also treated with dexamethasone as a positive control and vehicle as a negative control. Two hours later each mouse was injected with LPS. Samples were taken 90 minutes after LPS injection.
To evaluate the effect of different amino acids in the SP16 peptide for the immunomodulating effect, we created an alanine screen. […] The peptides wherein the substitution occurred within amino acids 4-14 of SP16, appeared to maintain and rather improve their capacity to reduce TNF-alpha levels compared to the control Dexamethasone. […]

Data set [1] is described as follows: SP16 pharmacokinetic profile, plasma concentration by LC/MS/MS. The format is in vivo, rat. The conditions noted are these: SP16, IV (5 mg/kg), normal rats. How it is done:
In performing the assay, three normal rats were injected intravenously with 5 mg/kg SP16 and the plasma concentration of SP16 established at 8 time points following the injection. […] The assay was executed by Apredica, Boston, Mass.

For the next data set, the target named is T2, hERG (Homo sapiens, UniProt Q12809).
T2 construct: Apredica (contract study)
T2 sequence (Q12809 whole entry): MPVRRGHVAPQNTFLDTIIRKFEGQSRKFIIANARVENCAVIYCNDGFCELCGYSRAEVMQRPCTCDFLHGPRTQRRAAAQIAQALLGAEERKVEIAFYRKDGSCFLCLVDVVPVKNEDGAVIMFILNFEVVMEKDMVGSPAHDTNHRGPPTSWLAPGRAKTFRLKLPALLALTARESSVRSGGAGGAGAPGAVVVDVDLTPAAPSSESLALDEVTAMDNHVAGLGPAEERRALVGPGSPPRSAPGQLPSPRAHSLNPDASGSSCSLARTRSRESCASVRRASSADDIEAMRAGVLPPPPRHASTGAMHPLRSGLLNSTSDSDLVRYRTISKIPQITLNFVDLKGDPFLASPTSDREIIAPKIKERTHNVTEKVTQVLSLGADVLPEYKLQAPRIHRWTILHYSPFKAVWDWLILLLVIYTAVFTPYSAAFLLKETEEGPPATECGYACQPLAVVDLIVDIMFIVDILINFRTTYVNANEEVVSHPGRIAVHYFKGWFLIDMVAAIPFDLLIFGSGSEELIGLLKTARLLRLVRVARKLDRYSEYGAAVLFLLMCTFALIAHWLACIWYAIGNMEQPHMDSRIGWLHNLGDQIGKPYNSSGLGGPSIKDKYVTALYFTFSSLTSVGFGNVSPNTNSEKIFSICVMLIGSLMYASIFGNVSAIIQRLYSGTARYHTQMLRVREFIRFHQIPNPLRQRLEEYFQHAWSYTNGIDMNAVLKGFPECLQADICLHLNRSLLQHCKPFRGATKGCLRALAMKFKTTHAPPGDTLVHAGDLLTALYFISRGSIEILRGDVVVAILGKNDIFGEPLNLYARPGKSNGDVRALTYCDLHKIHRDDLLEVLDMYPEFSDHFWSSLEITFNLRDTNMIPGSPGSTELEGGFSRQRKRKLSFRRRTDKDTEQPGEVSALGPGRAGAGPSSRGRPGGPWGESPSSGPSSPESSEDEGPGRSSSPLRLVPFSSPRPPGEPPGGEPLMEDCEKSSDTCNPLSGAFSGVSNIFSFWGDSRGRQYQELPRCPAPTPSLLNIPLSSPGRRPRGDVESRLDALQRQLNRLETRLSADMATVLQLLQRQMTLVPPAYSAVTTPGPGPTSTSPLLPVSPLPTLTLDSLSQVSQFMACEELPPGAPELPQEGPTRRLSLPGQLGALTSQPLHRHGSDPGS
Kind of data set: hERG FastPatch assay. It counts as cell-based. The conditions noted are these: test conc 0.008-25 μM. On the technique in general: Block of hERG is tested as a sign of cardiac risk.

The test system of the next data set is 111 human receptors. As to the kind of experiment: GenSEP Explorer panel, human receptor panning. The conditions noted are these: whole GenSEP Explorer panel. The source says:
In addition, we also performed a profile using human receptor panning. The GenSEP Explorer panel contains 111 in vitro assay targets carefully selected to assess drug/chemical biological activities. Assay categories include GPCRs, Voltage-Gated Ion Channels, Ligand-Gated Ion Channels, Neurotransmitter transporters, Nuclear Receptors and Steroids as well as a diverse set of biochemical targets including Phosphodiesterases, Kinases and other relevant enzymes.

T1 sequence (Q9QUN7 25-784): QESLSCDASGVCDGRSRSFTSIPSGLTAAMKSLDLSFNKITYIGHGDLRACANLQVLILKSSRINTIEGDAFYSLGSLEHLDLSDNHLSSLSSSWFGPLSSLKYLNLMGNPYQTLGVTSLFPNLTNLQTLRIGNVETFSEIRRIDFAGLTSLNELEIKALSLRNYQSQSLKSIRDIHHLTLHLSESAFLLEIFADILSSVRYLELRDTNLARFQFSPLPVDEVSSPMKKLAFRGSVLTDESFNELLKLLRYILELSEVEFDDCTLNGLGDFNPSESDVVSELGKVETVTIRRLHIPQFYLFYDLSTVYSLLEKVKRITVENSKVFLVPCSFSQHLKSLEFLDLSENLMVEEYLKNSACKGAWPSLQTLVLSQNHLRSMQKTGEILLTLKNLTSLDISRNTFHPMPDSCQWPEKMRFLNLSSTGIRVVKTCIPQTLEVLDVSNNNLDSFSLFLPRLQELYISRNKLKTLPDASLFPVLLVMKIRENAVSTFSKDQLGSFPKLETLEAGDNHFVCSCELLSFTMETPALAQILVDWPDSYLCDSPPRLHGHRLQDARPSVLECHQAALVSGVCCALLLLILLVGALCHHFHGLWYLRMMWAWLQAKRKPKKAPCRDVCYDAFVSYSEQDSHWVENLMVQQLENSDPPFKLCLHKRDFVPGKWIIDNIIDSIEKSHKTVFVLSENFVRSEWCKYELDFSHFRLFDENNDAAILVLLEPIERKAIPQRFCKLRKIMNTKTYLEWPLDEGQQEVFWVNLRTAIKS

In the case of “A A A N K P F V F L M I E Q N T K (AAANKPFVFLMIEQNTK; listed as Homo sapiens) [SP37, SP16 with residues 1-3 substituted with alanines]”, the “impact on TLR-2 signaling (alanine scan)” value with TLR-2 is given as “no impact on TLR2”.
For the compound “V K F N K P F V F A A A E Q N T K (VKFNKPFVFAAAEQNTK; listed as Homo sapiens) [SP46]”, the TNF-alpha levels entry in the data set with LPS challenged mice is on record as “reduce TNF-alpha levels more than Dexamethasone”.
Turning to `CC[C@H](C)[C@H](NC(=O)[C@H](CCSC)NC(=O)[C@H](CC(C)C)NC(=O)[C@H](Cc1ccccc1)NC(=O)[C@@H](NC(=O)[C@H](Cc1ccccc1)NC(=O)[C@@H]1CCCN1C(=O)[C@H](CCCCN)NC(=O)[C@H](CC(N)=O)NC(=O)[C@H](Cc1ccccc1)NC(=O)[C@H](CCCCN)NC(=O)[C@@H](N)C(C)C)C(C)C)C(=O)N[C@@H](CCC(=O)O)C(=O)N[C@@H](CCC(N)=O)C(=O)N[C@@H](CC(N)=O)C(=O)N[C@H](C(=O)N[C@@H](CCCCN)C(=O)O)[C@@H](C)O` [SP16], the Last Time point in data set [1] came to 8 h. At hERG, the “hERG inhibition (comment)” value is on record as “does not inhibit hERG; also recorded: No concentration-dependent inhibition”. Further, the “effect on 111 human receptors” value with 111 human receptors was “no effect”.
Regarding “V K F A A A F V F L M I E Q N T K (VKFAAAFVFLMIEQNTK; listed as Homo sapiens) [SP40]”, the TNF-alpha levels entry with LPS challenged mice is listed as “reduce TNF-alpha levels more than Dexamethasone”.
Still for that read-out and setting: next, “V K F N K P F V F L M I A A A T K (VKFNKPFVFLMIAAATK; listed as Homo sapiens) [SP49]”: “reduce TNF-alpha levels more than Dexamethasone”.
Turning to “V K F N K P A A A L M I E Q N T K (VKFNKPAAALMIEQNTK; listed as Homo sapiens) [SP43]”, in the data set with LPS challenged mice, the TNF-alpha levels result is “reduce TNF-alpha levels more than Dexamethasone”.
